Data: patent US20260374754A1, “N-((ISOQUINOLIN-6-YL)METHYL)-1H-PYRAZOLE-4-CARBOXAMIDE DERIVATIVES AS PLASMA KALLIKREIN INHIBITORS FOR THE TREATMENT OF HEREDITARY ANGIODEMA” (Takeda Pharmaceutical Company Limited, priority 2022, published 2026)
Counter-ions that a name gives are not always drawn.

How the values were obtained:
[1] = target: human activated kallikrein enzyme (Homo sapiens, UniProt P03952); experiment: Inhibition of human activated plasma kallikrein, fluorogenic PFR-AMC substrate, 500 pM enzyme format; format: biochemical; conditions: 500 pM activated kallikrein; 300 μM PFR-AMC; 30 min preincubation; 10 min room temperature; pH 7.5; read-out: Primary Dose Response Assay: Average EC50
Chain of human activated kallikrein enzyme (P03952 391-638 limits assumed): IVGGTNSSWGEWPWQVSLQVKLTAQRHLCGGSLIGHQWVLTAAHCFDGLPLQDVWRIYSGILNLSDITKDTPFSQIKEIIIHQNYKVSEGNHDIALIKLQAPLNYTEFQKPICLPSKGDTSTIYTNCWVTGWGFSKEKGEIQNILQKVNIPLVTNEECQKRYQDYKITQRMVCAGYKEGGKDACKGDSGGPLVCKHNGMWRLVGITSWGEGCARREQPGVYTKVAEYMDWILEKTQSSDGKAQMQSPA
Chain of human activated kallikrein enzyme (P03952 20-390 partner limits assumed): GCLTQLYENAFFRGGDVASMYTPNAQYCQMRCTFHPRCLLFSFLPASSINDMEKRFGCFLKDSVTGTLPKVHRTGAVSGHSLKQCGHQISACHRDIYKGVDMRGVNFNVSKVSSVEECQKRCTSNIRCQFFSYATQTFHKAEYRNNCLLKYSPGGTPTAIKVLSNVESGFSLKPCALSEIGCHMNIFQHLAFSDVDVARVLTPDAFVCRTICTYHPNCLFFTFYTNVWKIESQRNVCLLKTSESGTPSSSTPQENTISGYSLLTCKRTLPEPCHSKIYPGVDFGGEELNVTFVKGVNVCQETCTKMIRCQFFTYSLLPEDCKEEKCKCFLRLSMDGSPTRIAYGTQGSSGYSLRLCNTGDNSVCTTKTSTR
Summary of the method: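 Using fluorogenic PFR-AMC at 300 μM, cleavage by 500 pM human activated kallikrein ran 10 min at room temperature, read at 460 nm emission (380 nm excitation). Enzyme and compounds were first preincubated 30 min in 20 mM Tris pH 7.5, 150 mM NaCl, 1 mM EDTA, 0.1% PEG-400, 0.1% Triton X-100.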

plasma kallikrein = target: T1, plasma kallikrein (Homo sapiens, UniProt P03952); experiment: Neat Human Plasma Assay (Fluorogenic Peptide), contact pathway-activated (FXIIa) plasma; format: biochemical; conditions: human citrated plasma 78% final; 10 nM human FXIIa; PFR-AMC substrate; 5 minutes; room temperature
T1 construct: PFR-AMC substrate
T1 sequence (P03952 20-638): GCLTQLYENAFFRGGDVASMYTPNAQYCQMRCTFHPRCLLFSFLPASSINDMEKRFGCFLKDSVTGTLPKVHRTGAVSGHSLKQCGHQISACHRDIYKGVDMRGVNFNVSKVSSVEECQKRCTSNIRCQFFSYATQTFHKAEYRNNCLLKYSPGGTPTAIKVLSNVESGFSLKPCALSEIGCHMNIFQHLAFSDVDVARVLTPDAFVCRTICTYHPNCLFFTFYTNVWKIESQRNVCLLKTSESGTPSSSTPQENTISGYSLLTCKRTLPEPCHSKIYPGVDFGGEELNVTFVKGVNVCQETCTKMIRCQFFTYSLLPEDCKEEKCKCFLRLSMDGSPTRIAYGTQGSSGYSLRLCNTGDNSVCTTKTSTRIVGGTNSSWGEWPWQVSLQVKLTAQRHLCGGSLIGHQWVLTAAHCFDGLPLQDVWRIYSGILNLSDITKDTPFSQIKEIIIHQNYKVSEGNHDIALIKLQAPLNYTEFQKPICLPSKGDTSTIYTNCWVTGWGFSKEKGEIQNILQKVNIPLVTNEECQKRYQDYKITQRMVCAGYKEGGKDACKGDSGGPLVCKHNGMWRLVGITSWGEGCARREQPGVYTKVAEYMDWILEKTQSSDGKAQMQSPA
Summary of the method: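 Compound spiked into citrated human plasma (78% final), or plasma taken from rats dosed orally or IV. Activation by 10 nM FXIIa, then […] PFR-AMC in PKa buffer pH 7.5 at room temperature. Fluorescence rate over 5 min, with IC50/IC90 from 4-parameter fit.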

Row | Structure (SMILES) | EC50 [1] [nM] | IC90 (plasma kallikrein) [nM]
1 | Cc1cc2c(N)nccc2c(C)c1CNc1cc2c(cn1)c(F)cn2Cc1cn2cc(C3CC3)ccc2n1 [Example 285, 6-(((1-((6-cyclopropylimidazo[1,2-a]pyridin-2-yl)methyl)-3-fluoro-1H-pyrrolo[3,2-c]pyridin-6-yl)amino)methyl)-5,7-dimethylisoquinolin-1-amine] | 1 to 10 | 1000 to 5000
2 | Cc1cc2c(N)nccc2c(C)c1CNc1cc(OCc2cc3cc(C4CC4)cc(CCC(C)(C)O)n3n2)ncn1 [Example 508, 4-(2-(((6-(((1-amino-5,7-dimethylisoquinolin-6-yl)methyl)amino)pyrimidin-4-yl)oxy)methyl)-5-cyclopropylpyrazolo[1,5-a]pyridin-7-yl)-2-methylbutan-2-ol] | 1 to 10 | > 5000
3 | Cc1cc2c(N)nccc2c(C)c1CNc1cc(OCc2cn3cc(C4CC4)ccc3n2)cnn1 [Example 426, 6-(((5-((6-cyclopropylimidazo[1,2-a]pyridin-2-yl)methoxy)pyridazin-3-yl)amino)methyl)-5,7-dimethylisoquinolin-1-amine, formic acid salt] | < 1 | 1000 to 5000
4 | Cc1cc2c(N)nccc2c(C)c1CNc1cc(OCc2cc3cc(C4CC4)cnc3s2)ncn1 [Example 281, 6-(((6-((5-cyclopropylthieno[2,3-b]pyridin-2-yl)methoxy)pyrimidin-4-yl)amino)methyl)-5,7-dimethylisoquinolin-1-amine] | 1 to 10 | > 5000
5 | Cc1cc2c(N)nccc2c(C)c1CNC(=O)c1cn(Cc2ccc(N3CCCC3)nc2)nc1C(F)(F)F [Example 194, N-((1-amino-5,7-dimethylisoquinolin-6-yl)methyl)-1-((6-(pyrrolidin-1-yl)pyridin-3-yl)methyl)-3-(trifluoromethyl)-1H-pyrazole-4-carboxamide] | 1 to 10 | > 5000
6 | Cc1cc2c(N)nccc2c(C)c1CNc1cc(NCc2ccc3ncc(C4CC4)cc3c2)ncn1 [Example 314, N^4-((1-amino-5,7-dimethylisoquinolin-6-yl)methyl)-N^6-((3-cyclopropylquinolin-6-yl)methyl)pyrimidine-4,6-diamine] | < 1 | 1000 to 5000
7 | Cc1cc2c(N)nccc2c(C)c1CNc1ncncc1NCc1cn2cc(C3CC3)ccc2n1 [Example 288, N4-((1-amino-5,7-dimethylisoquinolin-6-yl)methyl)-N5-((6-cyclopropylimidazo[1,2-a]pyridin-2-yl)methyl)pyrimidine-4,5-diamine] | 1 to 10 | > 5000
8 | Cc1cc2c(N)nccc2c(C)c1CNc1cc(NCc2cn3cc(C4CC4)ccc3n2)ncn1 [Example 331, N^4-((1-amino-5,7-dimethylisoquinolin-6-yl)methyl)-N^6-((6-cyclopropylimidazo[1,2-a]pyridin-2-yl)methyl)pyrimidine-4,6-diamine] | < 1 | 1000 to 5000
9 | Cc1cc2c(N)nccc2c(C)c1CNc1nccc2nn(Cc3cn4cc(C5CC5)cnc4n3)cc12 [Example 392, 6-(((2-((6-cyclopropylimidazo[1,2-a]pyrimidin-2-yl)methyl)-2H-pyrazolo[4,3-c]pyridin-4-yl)amino)methyl)-5,7-dimethylisoquinolin-1-amine] | < 1 | ≤ 1000
